Consider five compounds from ChEMBL document CHEMBL1137284, “Farnesoid X-activated receptor antagonists from a marine sponge Spongia sp” (Bioorg Med Chem Lett, 2006).

Some results are limits rather than exact numbers.

Experiment [1] addresses T1, Bile acid receptor (Homo sapiens, UniProt Q96RI1).
T1 sequence (Q96RI1 whole entry): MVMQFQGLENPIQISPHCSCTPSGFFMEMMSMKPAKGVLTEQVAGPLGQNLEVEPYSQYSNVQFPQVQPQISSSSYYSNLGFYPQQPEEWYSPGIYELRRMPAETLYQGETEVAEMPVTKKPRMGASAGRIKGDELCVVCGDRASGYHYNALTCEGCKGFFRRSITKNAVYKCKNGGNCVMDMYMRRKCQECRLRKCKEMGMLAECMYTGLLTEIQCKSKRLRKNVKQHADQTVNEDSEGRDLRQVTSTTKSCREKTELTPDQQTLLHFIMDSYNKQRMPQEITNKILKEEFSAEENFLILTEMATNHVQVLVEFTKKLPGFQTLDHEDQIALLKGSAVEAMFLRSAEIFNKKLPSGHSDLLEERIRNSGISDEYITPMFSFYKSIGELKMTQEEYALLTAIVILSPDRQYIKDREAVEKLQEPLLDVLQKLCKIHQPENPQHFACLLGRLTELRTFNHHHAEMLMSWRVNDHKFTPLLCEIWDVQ
In words: Antagonist activity against FXR assessed as transactivation of luciferase reporter gene in CV1 cells. The experiment is classed as functional, cell-based, CV-1. (Reporter assays use an easily measured gene product as a stand-in for the process of interest.)

Experiment [2] can be described thus: Cytotoxicity against CV1 cells transfected with human FXR by MTT method. The class given is cell-based. The conditions noted are these: CV-1.

As for `CC(=O)OC[C@@]12CCC3C(C)(C)CCC[C@]3(C)C1C[C@@H](O)[C@@]1(C)C2CC=C2CO[C@@H](O)[C@@H]21` (stereo not given in full), the IC50 (usually the concentration needed to halve the response being measured) was 25.3 µM in experiment [1] and 29.2 µM in experiment [2].
Take `CO[C@@H]1OCC2=CCC3[C@]4(C)CCC5C(C)(C)CCC[C@]5(C)C4C[C@@H](O)[C@]3(C)[C@H]21` (stereo not given in full): the figures for the IC50 in experiment [1] and in experiment [2] were 24.8 µM and 86.9 µM, respectively.
For `CC(=O)O[C@@H]1CC2[C@@]3(C)CCCC(C)(C)C3CC[C@@]2(C)C2CC=C3CO[C@@H](O)[C@@H]3[C@]21C` (stereo not given in full), in that order: 81.1 µM and 98.5 µM.
For `CC(=O)OC[C@@]12CCC3C(C)(C)CCC[C@]3(C)C1C[C@@H](OC(C)=O)[C@@]1(C)C2CC=C2CO[C@@H](O)[C@@H]21` (stereo not given in full), in that order: 8.1 µM and 32.7 µM.
With `CC1(C)CCC[C@@]2(C)C1CC[C@]1(CO)C2C[C@@H](O)[C@@]2(C)C1CC=C1CO[C@@H](O)[C@@H]12` (stereo not given in full), the IC50 in experiment [1] is 64.5 µM; in experiment [2] it was greater than 100 µM.
